The assay has as its system P388 leukemia ip, CD2F1 mice, survival T/C. The experiment in a line: NCI In Vivo Anticancer Drug Screen. Data for tumor model P388 Leukemia (intraperitoneal) in CD2F1 (CDF1) mice. The conditions noted are these: endpoint: median survival time, higher = longer survival. In short, it runs like this:
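Mice carrying the transplanted tumor received test compound or vehicle. Survival was recorded in each group, and the value is the treated-group measurement divided by that of the vehicle-treated control group.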

Where [1] appears, read: dose: 6.25 mg/kg/injection, schedule: Q01DX005 (ip), vehicle: saline.
[2] abbreviates: dose: 12.5 mg/kg/injection, schedule: Q01DX005 (ip), vehicle: saline.
The mark [3] stands for this setting: dose: 12.5 mg/kg/injection, schedule: Q01DX009 (ip), vehicle: saline with Tween-80.
Setting [4] is: dose: 25.0 mg/kg/injection, schedule: Q01DX009 (ip), vehicle: saline with Tween-80.
The mark [5] stands for this setting: dose: 50.0 mg/kg/injection, schedule: Q01DX009 (ip), vehicle: saline with Tween-80.
[6] abbreviates: dose: 6.25 mg/kg/injection, schedule: Q01DX009 (ip), vehicle: saline with Tween-80.
[7] abbreviates: dose: 100.0 mg/kg/injection, schedule: Q01DX009 (ip), vehicle: saline with Tween-80.

“And” between values parts separate entries of the source, which are not always exact repeats. Equal entries are not always repeated. Inconclusive results and toxic doses are left out.

`CN=C(c1ccc(NC(=O)c2cc(C(=O)Nc3ccc(C(=NC)N(C)C)cc3)cc([N+](=O)[O-])c2)cc1)N(C)C`: the T/C is 101 % of control under setting [1] and 98 % of control under setting [2].
For `COc1cccc2c(NCCCCCCNc3c4ccccc4nc4c(OC)cccc34)c3ccccc3nc12`, the T/C (dose: 0.62 mg/kg/injection, schedule: Q## X009 (ip), vehicle: lactic acid) was 123 % of control; the T/C (dose: 0.63 mg/kg/injection, schedule: Q01DX009 (ip), vehicle: other) was 102 % of control; the T/C (dose: 1.25 mg/kg/injection, schedule: Q01DX009 (ip), vehicle: other) was 122 % of control; the T/C (dose: 2.5 mg/kg/injection, schedule: Q## X009 (ip), vehicle: lactic acid) is 160 % of control; the T/C (dose: 5.0 mg/kg/injection, schedule: Q## X009 (ip), vehicle: lactic acid) was 161 % of control; the T/C (dose: 10.0 mg/kg/injection, schedule: Q## X009 (ip), vehicle: lactic acid) was 119 % of control.
`CN1C(c2ccccc2)CC(=C(C#N)c2ccccc2)CC1c1ccccc1` (stereo not drawn): the T/C (dose: 30.0 mg/kg/injection, schedule: Q01DX005 (ip), vehicle: Klucel (hydroxypropylcellulose) (HPC)) is 103 % of control; the T/C (dose: 60.0 mg/kg/injection, schedule: Q01DX005 (ip), vehicle: Klucel (hydroxypropylcellulose) (HPC)) is 107 % of control; the T/C (dose: 120.0 mg/kg/injection, schedule: Q01DX005 (ip), vehicle: Klucel (hydroxypropylcellulose) (HPC)) is 93 % of control; the T/C (dose: 240.0 mg/kg/injection, schedule: Q01DX005 (ip), vehicle: Klucel (hydroxypropylcellulose) (HPC)) is 104 % of control.
Turning to `O=C1OC2=C(CCCC2)C(N2CCCCC2)C12SCCCS2` (stereo not drawn), the T/C (dose: 100.0 mg/kg/injection, schedule: Q04DX003 (ip), vehicle: saline with Tween-80) was 109 % of control; the T/C (dose: 200.0 mg/kg/injection, schedule: Q04DX003 (ip), vehicle: saline with Tween-80) was 103 % of control; the T/C (dose: 400.0 mg/kg/injection, schedule: Q04DX003 (ip), vehicle: saline with Tween-80) was 101 % of control.
As to `O=NNc1ccc2cc3ccc(NN=O)cc3nc2c1`, the T/C by setting is: (dose: 25.0 mg/kg/injection, schedule: Q01DX009 (ip), vehicle: water) 122 % of control; (dose: 50.0 mg/kg/injection, schedule: Q01DX009 (ip), vehicle: water) 106 % of control and 97 % of control.
With `[Mn+2].[NH-]CC(=O)NC(Cc1ccccc1)C(=O)O.[NH-]CC(=O)NC(Cc1ccccc1)C(=O)O` (stereo not drawn), the T/C reads like this: (dose: 100.0 mg/kg/injection, schedule: Q04DX003 (ip), vehicle: saline) 113 % of control; (dose: 200.0 mg/kg/injection, schedule: Q04DX003 (ip), vehicle: saline) 116 % of control.
Regarding `O=C(NNC(=O)c1cccnc1)Nc1cccc(Cl)c1Cl`, the T/C is 104 % of control under setting [3], 100 % of control under setting [4] and 95 % of control under setting [5].
Take `O=C(Nc1ccc(Cl)cc1)Nc1ccc(Cl)nn1`: the T/C by setting is: (dose: 3.12 mg/kg/injection, schedule: Q04DX002 (ip), vehicle: Klucel (hydroxypropylcellulose) (HPC)) 101 % of control; (dose: 6.25 mg/kg/injection, schedule: Q04DX002 (ip), vehicle: Klucel (hydroxypropylcellulose) (HPC)) 102 % of control; (dose: 12.5 mg/kg/injection, schedule: Q04DX002 (ip), vehicle: Klucel (hydroxypropylcellulose) (HPC)) 98 % of control; (dose: 25.0 mg/kg/injection, schedule: Q04DX002 (ip), vehicle: Klucel (hydroxypropylcellulose) (HPC)) 115 % of control; (dose: 50.0 mg/kg/injection, schedule: Q04DX002 (ip), vehicle: Klucel (hydroxypropylcellulose) (HPC)) 90 % of control; (dose: 100.0 mg/kg/injection, schedule: Q04DX002 (ip), vehicle: Klucel (hydroxypropylcellulose) (HPC)) 88 % of control and 95 % of control.
In the case of `NC(CCC(=O)O)C(=O)Nc1ccc(N(CCCl)CCCl)cc1` (stereo not drawn), the T/C was 173 % of control (dose: 1.56 mg/kg/injection, schedule: Q01DX009 (ip), vehicle: saline with Tween-80); 175 % of control (dose: 3.12 mg/kg/injection, schedule: Q01DX009 (ip), vehicle: saline with Tween-80); 230 % of control under setting [6]; 92 % of control under setting [3].
Regarding `O=C(O)C(=O)O.[NH2-].[NH2-].[NH2-].[NH2-].[Ru+4]`, the T/C by setting is: (dose: 3.13 mg/kg/injection, schedule: Q04DX003 (ip), vehicle: water) 110 % of control; (dose: 25.0 mg/kg/injection, schedule: Q04DX003 (ip), vehicle: water) 98 % of control.
Regarding `CN(C)/C=C/C=C1\CCCC1=O`, the T/C was 103 % of control (dose: 50.0 mg/kg/injection, schedule: Q04DX002 (ip), vehicle: saline with Tween-80); 100 % of control (dose: 100.0 mg/kg/injection, schedule: Q04DX002 (ip), vehicle: saline with Tween-80); 108 % of control (dose: 200.0 mg/kg/injection, schedule: Q04DX002 (ip), vehicle: saline with Tween-80).
Consider `COc1cccc(C(=O)OCCC(C)C)c1O`, for which the T/C runs as follows: (dose: 50.0 mg/kg/injection, schedule: Q01DX009 (ip), vehicle: saline) 110 % of control; (dose: 100.0 mg/kg/injection, schedule: Q01DX009 (ip), vehicle: saline) 110 % of control and 92 % of control; (dose: 200.0 mg/kg/injection, schedule: Q01DX009 (ip), vehicle: saline) 104 % of control and 117 % of control.
With `O=[N+]([O-])c1ccc(Sc2ncccn2)c([N+](=O)[O-])c1`, the T/C (dose: 50.0 mg/kg/injection, schedule: Q01DX009 (ip), vehicle: suspension in saline) was 103 % of control; the T/C (dose: 100.0 mg/kg/injection, schedule: Q01DX009 (ip), vehicle: suspension in saline) was 88 % of control; the T/C (dose: 200.0 mg/kg/injection, schedule: Q01DX009 (ip), vehicle: suspension in saline) is 91 % of control.
Regarding `Cc1cc(O)c2c(c1)C(=O)c1c(-c3ccc(O)c4c3C(=O)c3c(O)c(C)cc(O)c3C4=O)ccc(O)c1C2=O`, the T/C is, setting by setting: (dose: 3.0 mg/kg/injection, schedule: Q01DX005 (ip), vehicle: Klucel (hydroxypropylcellulose) (HPC)) 95 % of control; (dose: 6.0 mg/kg/injection, schedule: Q01DX005 (ip), vehicle: Klucel (hydroxypropylcellulose) (HPC)) 95 % of control; (dose: 12.0 mg/kg/injection, schedule: Q01DX005 (ip), vehicle: Klucel (hydroxypropylcellulose) (HPC)) 93 % of control; (dose: 24.0 mg/kg/injection, schedule: Q01DX005 (ip), vehicle: Klucel (hydroxypropylcellulose) (HPC)) 86 % of control.
Take `COc1cc2cccc(OC)c(=O)c2c(OC)c1OC`: the T/C runs as follows: (dose: 50.0 mg/kg/injection, schedule: Q01DX005 (ip), vehicle: Klucel (hydroxypropylcellulose) (HPC)) 92 % of control; (dose: 100.0 mg/kg/injection, schedule: Q01DX005 (ip), vehicle: Klucel (hydroxypropylcellulose) (HPC)) 100 % of control; (dose: 200.0 mg/kg/injection, schedule: Q01DX005 (ip), vehicle: Klucel (hydroxypropylcellulose) (HPC)) 90 % of control.
For the compound `CCCCOCN(COCCCC)c1ccc(C)cc1`, the T/C is, setting by setting: under setting [3], 88 % of control; under setting [4], 104 % of control; under setting [5], 112 % of control.
For the compound `O=NNc1ccncc1`, the T/C reads like this: under setting [1], 109 % of control; under setting [2], 122 % of control; (dose: 25.0 mg/kg/injection, schedule: Q01DX005 (ip), vehicle: saline) 120 % of control.
With `CC(C)COC1CN=NN1/C=C1\CCOC1=O` (stereo not drawn), the T/C (dose: 60.0 mg/kg/injection, schedule: Q01DX005 (ip), vehicle: saline with Tween-80) was 102 % of control; the T/C (dose: 120.0 mg/kg/injection, schedule: Q01DX005 (ip), vehicle: saline with Tween-80) is 107 % of control; the T/C (dose: 240.0 mg/kg/injection, schedule: Q01DX005 (ip), vehicle: saline with Tween-80) is 100 % of control.
Take `CC1OC(CC(=O)O)CC2=C1C(=O)c1c(O)cccc1C2=O` (stereo not drawn): the T/C is, setting by setting: (dose: 3.13 mg/kg/injection, schedule: Q01DX009 (ip), vehicle: saline with Tween-80) 94 % of control; under setting [6], 115 % of control and 117 % of control; under setting [3], 110 % of control and 115 % of control; under setting [4], 101 % of control and 114 % of control.
On to `Cc1csc(NC(=O)Nc2ccc(F)cc2[N+](=O)[O-])n1`, for which the T/C is 106 % of control (dose: 25.0 mg/kg/injection, schedule: Q01DX009 (ip), vehicle: Klucel (hydroxypropylcellulose) (HPC)); 97 % of control (dose: 50.0 mg/kg/injection, schedule: Q01DX009 (ip), vehicle: Klucel (hydroxypropylcellulose) (HPC)); 105 % of control under setting [5]; 100 % of control (dose: 100.0 mg/kg/injection, schedule: Q01DX009 (ip), vehicle: Klucel (hydroxypropylcellulose) (HPC)); 94 % of control under setting [7]; 95 % of control (dose: 200.0 mg/kg/injection, schedule: Q01DX009 (ip), vehicle: Klucel (hydroxypropylcellulose) (HPC)).
With `O=C1c2ccccc2C(=O)c2cscc21`, the T/C is 100 % of control under setting [3], 97 % of control under setting [4], 97 % of control under setting [5] and 98 % of control under setting [7].

The record behind these values is PubChem BioAssay AID330 (DTP/NCI, 2004).
